# Measured values published in publication PMC9636434, “Discovery of small molecule agonists of the Relaxin Family Peptide Receptor 2” (Communications Biology, 2022).
# Where “and” joins values, the source holds several entries; their conditions need not be identical. Equal entries are not always repeated.
# How the values were obtained:
# vertebrae and femur = test: Biomechanical testing of L3 vertebrae (compression) and femur (3-point bending); assay type: in vivo, mouse; details: for Elastic Modulus (MPa) / Ultimate Stress (MPa) / Yield Stress (MPa): individual mice
# Source text: Previously it was established that C57BL/6 J female mice start losing trabecular bone mass naturally after they reach 8 weeks of age, which provides a model to study the anabolic effects of compound on bone metabolism. The use of females provides a test model with low if any basal INSL3 exposure. […] As previously reported, INSL3 induces an increase in Alp in primary human osteoblasts[20] (Supplementary Fig. 11b) while 6641 induces an increase in Osteocalcin expression (Fig. 5b). After micro-CT scanning, these same lumbar spine and femur from 6641- and vehicle-treated mice were utilized for biomechanical testing. The femurs were tested in a 3-point bending test and the L3 vertebrae in a compression test using an ElectroForce 5500 Test Instrument (TA Instruments, New Castle, DE) with a ramp rate of 0.05 mm/sec and support span of 8.1 mm, running […] software version 8.2. Time, force, and displacement were collected for use in the analysis of mechanical and material properties using custom MATLAB codes (MathWorks, Natick, MA). The Moment of Inertia (MoI) was calculated based on the micro-CT measurements. […] Biomechanical material properties in a vertebrae and b femur of vehicle- and compound- treated female mice. 12 and 15 mice were used in the vehicle and compound groups respectively. p = ns (Student's t-test). (1 picture or pasted object on this page, not shown here)
# human FSHR = target: T1, human FSHR (Homo sapiens, UniProt P23945); test: HitHunter cAMP XS+ assay, cAMP Hunter cell line FSHR; assay type: cell-based; details: for RLU: replicates (1),(2)
# T1 sequence (P23945 18-695): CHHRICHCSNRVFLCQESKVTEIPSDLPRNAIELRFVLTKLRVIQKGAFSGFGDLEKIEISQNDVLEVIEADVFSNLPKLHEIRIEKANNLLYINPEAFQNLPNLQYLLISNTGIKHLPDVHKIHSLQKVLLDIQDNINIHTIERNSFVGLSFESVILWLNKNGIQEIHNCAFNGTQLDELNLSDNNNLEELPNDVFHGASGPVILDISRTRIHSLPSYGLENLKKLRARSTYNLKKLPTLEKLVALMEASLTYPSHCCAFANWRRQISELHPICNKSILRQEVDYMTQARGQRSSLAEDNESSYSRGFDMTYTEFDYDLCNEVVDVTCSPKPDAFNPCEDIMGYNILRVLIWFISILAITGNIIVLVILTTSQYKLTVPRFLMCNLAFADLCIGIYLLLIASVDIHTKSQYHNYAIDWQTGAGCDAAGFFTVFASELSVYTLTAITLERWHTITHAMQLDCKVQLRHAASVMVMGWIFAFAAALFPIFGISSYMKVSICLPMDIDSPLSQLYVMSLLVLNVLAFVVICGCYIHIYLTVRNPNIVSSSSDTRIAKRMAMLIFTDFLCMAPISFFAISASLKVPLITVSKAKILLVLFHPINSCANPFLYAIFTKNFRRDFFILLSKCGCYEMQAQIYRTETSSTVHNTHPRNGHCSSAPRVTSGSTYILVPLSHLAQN
# Source text: Results are reported as raw RLU values and represent the
# mean ± SEM of 2 technical replicates.
# [1] = system: trabecular bone of lumbar vertebrae; test: Micro-CT of trabecular bone in L3 vertebral body after 8-week oral treatment; assay type: in vivo, mouse; details: 10 mg/kg PO 3 times per week, 8 weeks, individual mice
# [2] = Supplementary Figure 15a, L3 vertebrae compression
# [3] = Supplementary Figure 15b, femur 3-point bending
smiles,measurement,setting,value
O=C1Nc2ccc(-c3cc(C(F)(F)F)cc(C(F)(F)F)c3)cc2C(=O)N2CCN(C(=O)COc3ccc(OC(F)(F)F)cc3I)C[C@@H]12 [compound 6641],biomechanical properties of vertebrae and femur,"vertebrae and femur; 10 mg/kg PO 3 times per week, 8 weeks",no changes
same,Elastic Modulus (MPa),vertebrae and femur; [2],153.265 MPa and 132.946 MPa and 187.209 MPa and 254.765 MPa and 121.079 MPa and 235.799 MPa and 193.606 MPa and 184.897 MPa and 170.559 MPa and 170.73 MPa and 159.611 MPa and 225.093 MPa and 77.447 MPa and 155.764 MPa and 159.911 MPa
same,Ultimate Stress (MPa),vertebrae and femur; [2],14.1661 MPa and 20.1523 MPa and 16.2174 MPa and 22.2452 MPa and 21.0001 MPa and 22.5708 MPa and 23.224 MPa and 14.0488 MPa and 8.99 MPa and 16.5244 MPa and 23.9179 MPa and 31.2724 MPa and 15.8471 MPa and 17.3612 MPa and 20.3053 MPa
same,Yield Stress (MPa),vertebrae and femur; [2],13.761 MPa and 16.4161 MPa and 15.4319 MPa and 20.1436 MPa and 20.5667 MPa and 22.2148 MPa and 17.2035 MPa and 13.8315 MPa and 7.519 MPa and 16.2742 MPa and 23.3124 MPa and 30.0585 MPa and 14.6642 MPa and 10.8847 MPa and 20.2754 MPa
same,Elastic Modulus (MPa),vertebrae and femur; [3],7398.92 MPa and 8063.16 MPa and 7172.9 MPa and 5490.74 MPa and 6726.89 MPa and 7530 MPa and 6047.64 MPa and 5378.62 MPa and 5004.38 MPa and 6512.17 MPa and 8227.03 MPa and 6891.88 MPa and 7622.53 MPa and 6100.62 MPa and 7209.2 MPa
same,Ultimate Stress (MPa),vertebrae and femur; [3],125.43 MPa and 114.53 MPa and 121.49 MPa and 120.23 MPa and 113.48 MPa and 123.54 MPa and 148.86 MPa and 112.5 MPa and 116.79 MPa and 97.01 MPa and 135.98 MPa and 139.67 MPa and 122.96 MPa and 105.85 MPa and 123.21 MPa
same,Yield Stress (MPa),vertebrae and femur; [3],75.91 MPa and 60.78 MPa and 69.18 MPa and 62.13 MPa and 66.41 MPa and 57.07 MPa and 119.15 MPa and 57.74 MPa and 99.95 MPa and 60.92 MPa and 107.1 MPa and 79.8 MPa and 112.52 MPa and 62.12 MPa and 77.2 MPa
same,cAMP response through FSHR,human FSHR; Hit Hunter cAMP assay,did not result in an increase of cAMP level
same,RLU,human FSHR; Log [M] -4.70,1000 RLU and 1200 RLU
same,RLU,human FSHR; Log [M] -5.18,1080 RLU
same,RLU,human FSHR; Log [M] -5.65,960 RLU and 1040 RLU
same,RLU,human FSHR; Log [M] -6.13,880 RLU and 920 RLU
same,RLU,human FSHR; Log [M] -6.61,840 RLU and 960 RLU
same,RLU,human FSHR; Log [M] -7.08,960 RLU and 1040 RLU
same,RLU,human FSHR; Log [M] -7.56,1280 RLU and 720 RLU
same,RLU,human FSHR; Log [M] -8.04,880 RLU and 960 RLU
same,RLU,human FSHR; Log [M] -8.52,1040 RLU and 1080 RLU
same,RLU,human FSHR; Log [M] -8.99,720 RLU and 880 RLU
same,BV/TV (%),[1],trend toward increased and 21.83% and 22.07% and 25.65% and 21.31% and 23.44% and 26.86% and 22.32% and 23.17% and 21.16% and 25.39% and 23.83% and 22.19% and 23.69% and 23.39% and 21.11%
same,Conn.D,[1],No changes and 105.367 1/mm^3 and 104.207 1/mm^3 and 139.801 1/mm^3 and 114.117 1/mm^3 and 100.266 1/mm^3 and 110.113 1/mm^3 and 116.566 1/mm^3 and 102.739 1/mm^3 and 105.531 1/mm^3 and 114.364 1/mm^3 and 111.763 1/mm^3 and 100.184 1/mm^3 and 109.218 1/mm^3 and 125.466 1/mm^3 and 120.228 1/mm^3
same,Mat.D,[1],No changes and 789.633 VOI-mg HA/ccm and 806.041 VOI-mg HA/ccm and 814.578 VOI-mg HA/ccm and 814.711 VOI-mg HA/ccm and 826.05 VOI-mg HA/ccm and 764.488 VOI-mg HA/ccm and 771.958 VOI-mg HA/ccm and 779.095 VOI-mg HA/ccm and 769.29 VOI-mg HA/ccm and 795.903 VOI-mg HA/ccm and 795.302 VOI-mg HA/ccm and 809.309 VOI-mg HA/ccm and 793.168 VOI-mg HA/ccm and 804.707 VOI-mg HA/ccm and 800.171 VOI-mg HA/ccm
same,Tb.N,[1],significant increase and 4.0038 mm-1 and 4.0307 mm-1 and 4.3607 mm-1 and 4.399 mm-1 and 4.0225 mm-1 and 4.1566 mm-1 and 4.1337 mm-1 and 4.2031 mm-1 and 4.3359 mm-1 and 3.9986 mm-1 and 4.1625 mm-1 and 3.9653 mm-1 and 4.2022 mm-1 and 4.1463 mm-1 and 4.168 mm-1
same,Tb.Sp,[1],decreased and 0.2416 mm and 0.2439 mm and 0.2173 mm and 0.2168 mm and 0.234 mm and 0.2335 mm and 0.2409 mm and 0.2383 mm and 0.2244 mm and 0.2446 mm and 0.2447 mm and 0.2276 mm and 0.235 mm and 0.2349 mm
same,Tb.Th,[1],significant increase and 0.0544 mm and 0.0558 mm and 0.0561 mm and 0.0524 mm and 0.0567 mm and 0.0611 mm and 0.0571 mm and 0.0582 mm and 0.0525 mm and 0.0589 mm and 0.057 mm and 0.056 mm and 0.0578 mm and 0.0547 mm and 0.0543 mm
